Values after ≈ are worked out from the molar mass of the structure shown. Read-outs that look alike come from different tables or passages of the source.
How the values were obtained:
Assay type in all cases: cell-based
[1] = system: Staphylococcus aureus ATCC 29213 planktonic and biofilm bacteria; details: LB+B1, 24 h exposure; for MIC: S. aureus ATCC 29213; for MBEC: S. aureus ATCC 29213 biofilm; for MBC: S. aureus ATCC 29213 planktonic
[2] = system: Pseudomonas aeruginosa ATCC 27853 planktonic and biofilm bacteria; details: LB+B1, 24 h exposure; for MIC: P. aeruginosa ATCC 27853; for MBEC: P. aeruginosa ATCC 27853 biofilm; for MBC: P. aeruginosa ATCC 27853 planktonic
[3] = system: Escherichia coli JM109 planktonic and biofilm bacteria; details: LB+B1, 24 h exposure; for MIC: E. coli JM109; for MBEC: E. coli JM109 biofilm; for MBC: E. coli JM109 planktonic
[4] = system: Pseudomonas aeruginosa ATCC 27853 planktonic and biofilm bacteria; experiment: MBEC-HTP antibiotic susceptibility, P. aeruginosa; details: for MBEC: P. aeruginosa ATCC 27853 biofilm
Method: (§1) Luria-Bertani medium was chosen for two reasons: 1) its established use in studies of metal resistance, and 2) because of the use of rich media in NCCLS testing protocols for antimicrobial resistance. Antibiotic resistance assays were performed using cation-adjusted Mueller-Hinton broth (CA-MHB, BDH Inc.) and subcultures, MBC and MBEC bacterial counts were performed using trypticase soy agar (TSA, Difco).
(§2) The present study used a novel high throughput method for screening biofilm susceptibility to metal cations and oxyanions: the MBEC device (MBEC Bioproducts Inc., Edmonton, Alberta, Canada, http://www.mbec.ca). The MBEC high throughput (MBEC-HTP) assay system consists of a shallow trough into which a plastic lid with 96 pegs fits. This peg lid also fits over a standard 96-well microtitre plate which can subsequently be used to setup serial dilutions of antimicrobial compounds. The bottom half of the MBEC device is a trough that has shallow channels that direct flow of an inoculated suspension over the pegs on the lid.
(§3) The inoculum was standardized to a 1.0 McFarland standard and verified by viable counts. The 1.0 McFarland standard inoculum was diluted 30-fold with growth media, which served as the growth suspension to inoculate the MBECJ device.
(§4) P. aeruginosa was incubated for 9 h, S. aureus for 24 h and E. coli for 24 h to generate approximately equivalent biofilms of 6.0×10^6 cfu/peg. Following the incubation period, growth of biofilm and planktonic cultures in the MBECJ device were discerned and verified by viable cell counts.
(§5) Chloramphenicol (Sigma) was prepared in 50% ethanol and treated identically to the other antibiotics. 10% ethanol was added to the growth controls for chloramphenicol assays. […] Starting with the working solutions, serial two-fold dilutions were made in the wells of a 96-well plate (the challenge plate), leaving the first well of each row as a sterility control and the second as a growth control (i.e. no antibiotic).

[5] = system: Pseudomonas aeruginosa biofilms; experiment: Metal and antibiotic combination assay; details: for MBC / MIC / MBEC: median of 4 replicates
Method: Cells were grown to a mean density of 6.0×10^6 cfu/peg in LB+B1 media.
• 1. […] All data are median values based on 4 replicates.

[6] = system: Escherichia coli JM109 planktonic and biofilm bacteria; experiment: MBEC-HTP antibiotic susceptibility, E. coli; details: for MBEC: E. coli JM109 biofilm
Method: as §1, §2, §3, §4, §5

[7] = system: Staphylococcus aureus ATCC 29213 planktonic and biofilm bacteria; experiment: MBEC-HTP antibiotic susceptibility, S. aureus; details: CA-MHB, 24 h exposure; for MBEC: S. aureus ATCC 29213 biofilm; for MIC: S. aureus ATCC 29213; for MBC: S. aureus ATCC 29213 planktonic
Method: as §1, §2, §3, §4, §5

[8] = Pseudomonas aeruginosa, ATCC27853, P. aeruginosa ATCC 27853, CA-MHB, 24 h exposure, read-out: MIC
[9] = Pseudomonas aeruginosa, ATCC27853, P. aeruginosa ATCC 27853 planktonic, CA-MHB, 24 h exposure, read-out: MBC
[10] = antibiotic or heavy metal alone, LB+B1
[11] = Pseudomonas aeruginosa, ATCC27853, 24 h
[12] = antibiotic in combination with 500 μg/ml Zn^2+

Molecule | MIC [1] [mM] | MBEC [1] [mM] | MBC [1] [mM] | MIC [2] [mM] | MBEC [2] [mM] | MBC [2] [mM] | MIC [3] [mM] | MBEC [3] [mM] | MBC [3] [mM] | further results
O=[N+]([O-])[O-].[Ag+] [Ag^+, silver nitrate] | 0.30 ± 0 | >9.5 | 9.5 ± 0 | 0.30 ± 0 | 0.40 ± 0.17 | 0.30 ± 0 | 0.06 ± 0.02 | 0.07 ± 0.02 | 0.09 ± 0.04 | –
NCC[C@H](O)C(=O)N[C@@H]1C[C@H](N)[C@@H](O[C@H]2O[C@H](CN)[C@@H](O)[C@H](O)[C@H]2O)[C@H](O)[C@H]1O[C@H]1O[C@H](CO)[C@@H](O)[C@H](N)[C@H]1O [Amikacin] | – | – | – | – | – | – | – | – | – | MBEC ([4]; CA-MHB, 24 h exposure): >512 µg/mL; MIC [4, 8]: 32 µg/mL (≈ 54.6 µM); MBC [4, 9]: 224 ± 64 µg/mL (≈ 383 µM); MIC in the presence of Cu^2+, times less than the MIC for the antibiotic alone ([5]; 200 μg/ml Cu^2+): 256 times; MBC ([5]; Pseudomonas aeruginosa, antibiotic in combination with 200 μg/ml Cu^2+, read-out: MBC): > 64 µg/mL; MIC ([5]; Pseudomonas aeruginosa, antibiotic in combination with 200 μg/ml Cu^2+, read-out: MIC): 0.125 µg/mL; MBC ([5]; Pseudomonas aeruginosa, antibiotic or heavy metal alone, LB+B1, read-out: MBC): 256 µg/mL; MIC ([5]; Pseudomonas aeruginosa, antibiotic or heavy metal alone, LB+B1, read-out: MIC): 32 µg/mL; MBEC ([5]; antibiotic in combination with 200 μg/ml Cu^2+): >64 µg/mL; MBEC [5, 10]: >512 µg/mL
CC1(C)S[C@@H]2[C@H](NC(=O)[C@H](N)c3ccccc3)C(=O)N2[C@H]1C(=O)O [Ampicillin] | – | – | – | – | – | – | – | – | – | MBEC ([4]; CA-MHB, 24 h exposure): >512 µg/mL; MBC [4, 11]: > 512 µg/mL; MIC [4, 11]: > 512 µg/mL; MBEC ([6]; CA-MHB, 24 h exposure): 1024 ± 0 µg/mL; MBC ([6]; Escherichia coli, 24 h): 64 µg/mL (≈ 183 µM); MIC ([6]; Escherichia coli, 24 h): 4 µg/mL (≈ 11.4 µM)
[Cl][Cd][Cl] [Cd^2+, Cadmium chloride] | 0.25 ± 0.07 | 15.9 ± 4.6 | 18.2 ± 0 | 4.6 ± 0 | 36 ± 0 | 36 ± 0 | 1.1 ± 0 | 2.3 ± 0 | 2.3 ± 0 | –
O=C(N[C@H](CO)[C@H](O)c1ccc([N+](=O)[O-])cc1)C(Cl)Cl [Chloramphenicol] | – | – | – | – | – | – | – | – | – | MBEC ([4]; CA-MHB, 24 h exposure): >512 µg/mL; MIC [4, 8]: > 512 µg/mL; MBC [4, 9]: > 512 µg/mL; MBEC ([6]; CA-MHB, 24 h exposure): >256 µg/mL; MIC ([6]; Escherichia coli, E. coli JM109, CA-MHB, 24 h exposure, read-out: MIC): 3.5 ± 1 µg/mL (≈ 10.8 µM); MBC ([6]; Escherichia coli, E. coli JM109 planktonic, CA-MHB, 24 h exposure, read-out: MBC): 128 µg/mL (≈ 396 µM); MBEC [7]: >1024 µg/mL; MIC ([7]; Staphylococcus aureus, ATCC29213, read-out: MIC): 80 ± 32 µg/mL (≈ 248 µM); MBC ([7]; Staphylococcus aureus, ATCC29213, read-out: MBC): 1020 µg/mL (≈ 3170 µM)
[Cl][Hg][Cl] [Hg^2+, mercuric chloride] | 0.020 | 0.080 ± 0 | 0.080 ± 0 | 0.38 ± 0.14 | 0.43 ± 0.16 | 0.53 ± 0.39 | 0.07 ± 0.05 | 0.07 ± 0.05 | 0.07 ± 0.05 | –
O=S(=O)([O-])[O-].[Mn+2] [Mn^2+, manganous sulfate] | 12 ± 5 | >149 | >149 | >149 | >149 | >149 | 37 ± 0 | 199 ± 86 | 199 ± 86 | –
[Na+].[Na+].[O]=[Mo](=[O])([O-])[O-] [MoO4^2−, sodium molybdate] | >102 | >102 | >102 | >102 | >102 | >102 | >102 | >102 | >102 | –
CCN1CCN(C(=O)N[C@@H](C(=O)N[C@@H]2C(=O)N3[C@@H]2SC(C)(C)[C@@H]3C(=O)O)c2ccccc2)C(=O)C1=O [Pipperacillin, Piperacillin] | – | – | – | – | – | – | – | – | – | MIC ([6]; E. coli JM109, CA-MHB, 24 h exposure): 4 ± 0 µg/mL (≈ 7.73 µM); MBEC ([6]; CA-MHB, 24 h exposure): 32 ± 0 µg/mL; MBC ([6]; E. coli JM109 planktonic, CA-MHB, 24 h exposure): 16 ± 0 µg/mL (≈ 30.9 µM)
O=[Se](O)O [SeO3^2−, selenous acid] | 16 ± 0 (≈ 2060 µg/mL) | 16 ± 0 | 16 ± 0 (≈ 2060 µg/mL) | 28 ± 8 (≈ 3610 µg/mL) | 28 ± 8 | 28 ± 8 (≈ 3610 µg/mL) | 8.1 ± 0 (≈ 1040 µg/mL) | 8.1 ± 0 | 8.1 ± 0 (≈ 1040 µg/mL) | –
[Cl][Sn][Cl] [Sn^2+, stannous chloride] | 8.6 ± 0 | 17.3 ± 0 | 17.3 ± 0 | 17 ± 0 | 17 ± 0 | 22 ± 9 | – | 17 ± 0 | 17 ± 0 | –
O=[Te]([O-])[O-].[K+].[K+] [TeO3^2−, potassium tellurite] | 0.18 ± 0 | 0.73 ± 0 | >0.73 | 0.73 ± 0 | 4.4 ± 1.7 | 5.1 ± 0 | 0.006 | 0.014 | 0.016 | –
O=[Te](=O)([O-])[O-].[K+].[K+] [TeO4^2−, potassium tellurate] | 0.67 ± 0 | 1.3 ± 0.7 | >1.3 | >1.3 | >1.3 | >1.3 | 0.06 ± 0.02 | 0.42 ± 0.17 | 0.42 ± 0.17 | –
[Na+].[Na+].[O]=[W](=[O])([O-])[O-] [WO4^2−, sodium tungstate] | >66 | >66 | >66 | >66 | >66 | >66 | >66 | >66 | >66 | –
Gentamicin | – | – | – | – | – | – | – | – | – | MIC ([4]; P. aeruginosa ATCC 27853, CA-MHB, 24 h exposure): 10 ± 4 µg/mL; MBEC ([4]; CA-MHB, 24 h exposure): >1024 µg/mL; MBC ([4]; P. aeruginosa ATCC 27853 planktonic, CA-MHB, 24 h exposure): 28 ± 8 µg/mL; MIC [7]: <2 µg/mL; MBEC [7]: 3.5 ± 1 µg/mL; MBC [7]: 4 ± 0 µg/mL; MBC [5, 12]: 128 µg/mL; MIC [5, 12]: 64 µg/mL; MBC [5, 10]: 32 µg/mL; MBEC [5, 10]: >1024 µg/mL; MIC [5, 10]: 8 µg/mL
Sodium arsenite [AsO2^−] | 9.6 ± 0 | >77 | >77 | >77 | >77 | >77 | 2.4 ± 0 | 77 ± 0 | 77 ± 0 | –
Sodium hydrogen arsenate [AsO4^2−] | 15 ± 0 | >59 | >59 | >59 | >59 | >59 | 7.4 ± 0 | >60 | >60 | –

Source: US20080118573A1, “Use of Heavy Metals in the Treatment of Biofilms” (priority 2004, published 2008)
